According to US20250177366A1, “COMPOSITIONS AND METHODS FOR ALLEVIATING PAIN AND REDUCING ADVERSIVENESS OF STIMULI” (UNIVERSITY OF WASHINGTON, priority 2021, published 2025):

Legend:
Format in all cases: in vivo, Zebrafish (Danio rerio)
[1] = system: larval zebrafish; test: Thermal preference assay (28.5° C. vs 37.5° C.), non-sensitized; settings: for effect of co-applied drug on AS1-induced attraction to noxious heat / temperature choice, drug alone / effect of structural analog on temperature preference (time spent in the 28.5° C. zone): 28.5° C. vs 37.5° C.; for effect of co-applied drug on AS1-induced attraction to noxious heat: drug + 5 μM AS1; for temperature choice, drug alone: without AS1; for effect of structural analog on temperature preference (time spent in the 28.5° C. zone): at the tested concentration; for Reverses 28.5° C. Choice?: temperature preference 28.5° C. vs 37.5° C., larval zebrafish
Procedure: Thermal preference assay. […] Once an entire plate was loaded with fish, the appropriate incubation solution was added. […] Following incubation in all experiments, the choice testing plate was transported to a dual solid-state heat/cool plate (AHP-1200° C. P; Teca) and centered such that half of each arena was positioned over each side of the heat/cool plate. […] Locomotor behavior was recorded using a Canon high-definition video camcorder suspended at a fixed position above the choice testing plate. Each trial was four minutes in duration.
For single-incubation assays (e.g. testing single chemicals), larval zebrafish were caught in 100 μL E2 media and 100 μL of the control (2% DMSO) or test chemical at 2× concentration was added to each well to achieve the final desired concentration. […] The final DMSO concentration in all solutions was 1%.

[2] = system: larval zebrafish; test: Light/dark preference (phototaxis) assay; settings: SCH 10-20 μM + 2.5 μM AS1
Procedure: Following this, whether the effects of AS1 were restricted to somatosensation or were generalizable to other aversive stimuli were tested. Thus, the effects of AS1 on light/dark preference were tested. Zebrafish larvae prefer white light environments to dark environments and this preference is inhibited by anxiolytics, analagous to studies in rodents (Lau et al., Proc. Natl. Acad. Sci. U.S.A 2011; 108:2581-2586; Burgess et al., Curr. Biol. 2010; 20:381-386). To measure light/dark preference, larval zebrafish were placed in a square arena and given the choice between a bright white light and total darkness, and the number of larvae on each side was quantified at 30 second intervals. Five 4-minute trials were performed, where the light and dark sides of the arena were reversed between trials. […] Given the precise control over stimulus luminosity in this assay, the effects of altering the intensity of the dark stimulus were explored next. In this gradient version of the phototaxis assay, larval zebrafish were given the choice between a bright white environment and one of six potential shades of darkness, ranging from light gray to solid black. […] This implies that the valence of non-painful noxious stimuli is precisely encoded in an intensity-dependent manner, and that AS1 exerts its effects in proportion to the intensity of the stimulus.
Light/dark preference (phototaxis) assay. In the light/dark preference assay, randomly-selected 6 dpf larval zebrafish (N of 30 to 40) were carefully pipetted onto a 10 cm square petri dish using a 10 mL pipette pump equipped with a glass wide-bored Pasteur pipet. As much E2 media as possible was carefully removed using the same pipet. For single incubation experiments, 30 mL of 1× solutions of the control or test chemical was added to each petri dish, and fish were incubated for 10 minutes at 28.5° C. For double incubation experiments, 15 mL of 1× solutions containing control (DMSO) or test chemicals was added to the larvae-containing petri dish. Following a ten-minute incubation period, 15 mL of the second incubation solution (1× control or test chemical +/−2× AS1) was added to the petri dish, and the fish were incubated for a second ten minute block. The final concentration of DMSO in all solutions was 1%. In all double-incubation experiments, the final concentration of AS1 was 2.5 μM. These petri dishes were then positioned over a horizontally-oriented computer monitor displaying a PowerPoint presentation. For standard light/dark preference assays, a blank white slide was initially presented for one minute, after which the presentation would automatically advance to a slide in which half of the display was black. The petri dish with larvae was positioned such that exactly half was directly over the dark side, and the other half was directly over the light side. After four minutes, the presentation automatically advanced to a slide in which the black and white halves switched places. A total of five four-minute trials, with the dark/light halves automatically switching position between trials, were recorded. For the gradient phototaxis assay, experiments were performed identically, except that the “dark” half of the powerpoint presentation was one of six shades of gray.
In all experiments, an initial still frame of video was taken during the minute where the blank slide was presented in order to quantify the total number of fish in the experiment. Following this, still frames were taken at 30 second intervals for each trial ([…]), and the number of fish present in the light half of the arena were counted. To generate the graphs that looked at swimming patterns over time in a trial (e.g., FIG. 3D), the average percentage of fish in the light at each time point (T=0, T=30, etc.) was calculated across all five trials. […]

[3] = system: larval zebrafish; test: AITC aversion assay (chemical attraction/aversion, AITC-infused agarose); settings: SCH 1-20 μM + 5 μM AS1
Description: Whether the effects of AS1 extended beyond noxious temperature sensation or could also impact other somatosensory modalities was next explored. To accomplish this, a chemical attraction/aversion assay where a thin layer of agarose was deposited along the edges of a square arena (Jordi et al., Sci. Adv. 2018; 4:1-15) were adapted. Along one wall, the agarose contained the chemical to be tested, while the other three walls were lined with control agarose. It was anticipated that a chemical gradient would be established as chemical diffused from the agarose into the surrounding water. Larvae were pre-incubated in either vehicle or AS1 and then added to the arena and the distance of each larva from the chemical-infused agarose was measured. In control experiments where all four walls of the arena were lined with agarose only, AS1 and vehicle-treated larvae were dispersed evenly throughout the arena (FIG. 3). […] When the nociceptive chemical AITC (100 mM, 10,000× maximal effective dose) was tested, vehicle-treated larvae swam away from the AITC source.
Chemical attraction/aversion assays. The agarose attraction/aversion assay was adapted from previously described experiments (Jordi et al., Sci. Adv. 2018; 4:1-15). For the AITC aversion assay, AITC and DMSO were added to molten 0.8% agarose to achieve a final concentration of 100 mM AITC and 2% DMSO. For the AS1 attraction/aversion assay, AS1 and DMSO were added to 0.8% molten agar to achieve final concentrations of 50 mM and 2%, respectively. To construct the test chambers, the lids of 10×10 cm square petri dishes (insert cat #and company) were lined on four sides with either the test (chemical-containing) or plain agarose (300 μL per side) and allowed to solidify. For all experiments, 30-40 randomly selected 6 dpf zebrafish were caught with a 10 mL pipette pump (Bel-Air Products, cat #: 13683C) equipped with a glass wide-bored Pasteur pipet (Fisher Scientific, cat #: 22-037-540) and deposited into a standard 10 cm diameter petri dish (Fisher Scientific, cat #: 07-202-031). As much E2 media as possible was carefully removed using the same pipette. For single incubation experiments, 30 mL of 1× solutions of the control or test chemical was added to each petri dish, and fish were incubated for 10 minutes at 28.5° C. For double incubation experiments, 15 mL of 1× solutions containing control (DMSO) or test chemicals was added to the larvae-containing petri dish. Following a ten minute incubation, 15 mL of the second incubation solution (1× control or test chemical +/−2× AS1) was added to the petri dish, and the fish were incubated for a second ten minute block. The final concentration of DMSO in all solutions was 1%. In all double-incubation experiments, the final concentration of AS1 was 5 μM unless otherwise noted. After completion of the last incubation period, the contents of each petri dish were poured into separate agarose-lined square dishes. Swimming behavior was immediately recorded for 20 minutes using the same high-definition camcorder in the thermal preference assays.

SMILES | temperature choice, drug alone [1] | effect of structural analog on temperature preference (time spent in the 28.5° C. zone) [1] | Reverses 28.5° C. Choice? [1] | also measured
CC(N)Cc1c[nH]c2ccc(OCc3cccs3)cc12 (centres unmarked) [BW723C86] | significantly chose the 28.5 °C side | – | – | effect of co-applied drug on AS1-induced attraction to noxious heat [1]: At no concentration did BW723C86 influence AS1-induced attraction towards noxious heat
CC(C)c1ccc(C(=O)Nc2cccnc2)cc1 [Compound 7301738, 4-isopropyl-N-3-pyridinylbenzamide] | – | only had a small, if still significant, effect on temperature preference | No | –
CN1CCN(CCc2ccc(Cl)c(Cl)c2)CC1 [BD1063] | significantly chose the 28.5 °C side | – | – | effect of co-applied drug on AS1-induced attraction to noxious heat [1]: At no concentration did BD1063 influence AS1-induced attraction towards noxious heat
CC(C)c1ccc(NC(=O)c2cccnc2)cc1 [Compound 5538018, N-(4-isopropylphenyl)nicotinamide] | – | – | No | –
COc1ccc(CC2NCCc3c2[nH]c2ccc(C)cc32)c(Cl)c1OC (centres unmarked) [LY266097] | significantly chose the 28.5 °C side | – | – | effect of co-applied drug on AS1-induced attraction to noxious heat [1]: At no concentration did LY266097 influence AS1-induced attraction towards noxious heat
O=C(OCCN1CCOCC1)C1(c2ccccc2)CCCCC1 [PRE-084] | potentiating preference for the 28.5 °C zone | – | – | effect of co-applied drug on AS1-induced attraction to noxious heat [1]: At no concentration did PRE-084 influence AS1-induced attraction towards noxious heat
CCCc1ccc(C(=O)Nc2ccncc2)cc1 [Compound 9089110, 4-propyl-N-4-pyridinylbenzamide] | – | abolished preference for either side | No preference for either temperature | effect of structural analog on temperature preference (time spent in the 28.5° C. zone) ([1]; listed as Analog 9089110): completely ablated aversion
CCCc1ccc(C(=O)Nc2cccnc2)cc1 [Compound 9090934, 4-propyl-N-3-pyridinylbenzamide] | – | has no effect upon temperature preference | No | –
Cc1noc(C)c1C(=O)Nc1ccc(C(C)C)cc1 [Compound 9089180, N-(4-isopropylphenyl)-3,5-dimethyl-4-isoxazolecarboxamide] | – | had a significant (if small) influence upon temperature choice behavior | No | –
O=C1CC2(CCCC2)CC(=O)N1CCCCN1CCN(c2ncccn2)CC1 [Buspirone, buspirone] | had no effect upon thermal preference | – | – | –
Cc1ccc(C(=O)Nc2ccncc2)c(C)c1 [Compound 7755382, 2,4-dimethyl-N-4-pyridinylbenzamide] | – | prevented an analogue from replicating the effects of AS1 | No | –
Cc1cc(C)c(C(=O)Nc2ccncc2)c(C)c1 [Compound 9047736, 2,4,6-trimethyl-N-4-pyridinylbenzamide] | – | prevented an analogue from replicating the effects of AS1 | No | –
CCCCc1ccc(C(=O)Nc2ccncc2)cc1 [Compound 9098532, 4-butyl-N-4-pyridinylbenzamide] | – | prevented an analogue from replicating the effects of AS1 | No | –
Cn1c(=O)c2c(ncn2C)n(C)c1=O [caffeine] | did not affect thermal preference for 28.5 °C | – | – | –
CCc1ccc(C(=O)Nc2cccnc2)cc1 [Compound 7947669, 4-ethyl-N-3-pyridinylbenzamide] | – | – | No | –
CN1CCc2cc(Cl)c(O)cc2[C@@H](c2ccccc2)C1 [SCH23390] | – | – | – | concentration abolishing AS1-induced preference for the dark entirely [2]: 15 µM; concentrations that partially attenuate AS1-induced attraction to AITC [3]: ≥ 5 µM
COc1ccc(Br)cc1CCc1c(F)cccc1C1=NCCN1 [ML00253764] | slightly potentiate preference towards the 28.5 °C zone | – | – | effect of co-applied drug on AS1-induced attraction to noxious heat [1]: At no concentration did ML00253764 reduce AS1-induced attraction towards noxious heat
CN1C(=O)CN=C(c2ccccc2)c2cc(Cl)ccc21 [diazepam] | potentiated preference for 28.5 °C | – | – | –
